Experimental data from ChEMBL document CHEMBL2429810, “Heteroannelated and 7-deoxygenated goniofufurone mimics with antitumour activity: design, synthesis and preliminary SAR studies” (Bioorg Med Chem Lett, 2013).

Legend:
[1] = test system: MRC5; assay: Antiproliferative activity against human MRC5 cells after 72 hrs by MTT assay; type: cell-based; settings: MRC5, 72 h
[2] = test system: HL-60; assay: Antiproliferative activity against human HL60 cells after 72 hrs by MTT assay; type: functional, cell-based; settings: HL-60, 72 h
[3] = test system: K562; assay: Antiproliferative activity against human K562 cells after 72 hrs by MTT assay; type: functional, cell-based; settings: K562, 72 h
[4] = test system: Raji; assay: Ratio of doxorubicin IC50 to compound IC50 for human Raji cells; type: functional
[5] = test system: Jurkat; assay: Antiproliferative activity against human Jurkat cells after 72 hrs by MTT assay; type: functional, cell-based
[6] = test system: HeLa; assay: Antiproliferative activity against human HeLa cells after 72 hrs by MTT assay; type: functional, cell-based
[7] = test system: Raji; assay: Antiproliferative activity against human Raji cells after 72 hrs by MTT assay; type: functional, cell-based

Structure (SMILES)	IC50 [1] [µM]	IC50 [2] [µM]	IC50 [3] [µM]	Ratio IC50 [4]	IC50 [5] [µM]	IC50 [6] [µM]	IC50 [7] [µM]
O=C1C[C@H]2O[C@H](Cc3ccccc3)[C@H](O)[C@H]2O1	> 100						
O=C1C[C@H]2O[C@H]([C@H](O)c3ccccc3)[C@H](O)[C@H]2O1	> 100	> 100					
O=C1C[C@@H]2O[C@@H](Cc3ccccc3)[C@@H](O)[C@@H]2O1	> 100	0.17	0.02	100	0.12	1.21	0.03
O=C1C[C@H]2O[C@H](Cc3ccccc3)[C@H](OCc3ccccc3)[C@H]2O1	> 100	0.56	0.14		1.01	4.32	9.48
Cc1ccccc1[C@H](c1ccccc1)[C@H]1O[C@@H]2CC(=O)O[C@@H]2[C@H]1O	> 100	11.7	1.56		21.4	11.4	5.67
O=C1C[C@H]2O[C@@H]3[C@@H](c4ccccc4)c4ccccc4CO[C@@H]3[C@H]2O1	> 100	0.78	1.43		0.074	> 100	0.46
O=C1C[C@@H]2O[C@H]3[C@H](c4ccccc4)c4ccccc4CO[C@H]3[C@@H]2O1	> 100	11.7	1.21		18.4	6.56	15.9
